Results on three molecules are retold here after patent US20230310334A1, “LIPID NANOPARTICLE” (SHENZHEN SHENXIN BIOTECHNOLOGY CO., LTD., priority 2020, published 2023).

Structures are written as SMILES.

The test system of this test is luciferase mRNA (Fluc mRNA) expression. Put plainly: Luciferase mRNA delivery performance in vivo of lipid nanoparticles prepared from amino lipid compounds (IVIS imaging). Details: species or system BALB/c mice. Particulars: Fluc mRNA LNP, 0.5 mg/kg, imaging 6 hours after injection, male BALB/c mice; for Average fluorescence intensity (intramuscular) / Average fluorescence intensity (subcutaneous): preparation process I (DOPE); for Average fluorescence intensity (tail vein): preparation process II (DSPC). As to the method:
Example 40: Evaluation of Luciferase mRNA Delivery Performance In Vivo of Lipid Nanoparticles Prepared from Amino Lipid Compounds
Preparation of lipid nanoparticles:
Preparation process I: The amino lipid compound described in the present invention and DOPE, cholesterol, PEG2000-DMG were mixed and dissolved in absolute ethanol in a molar ratio of 45:10:42.5:2.5. Two microinjection pumps were used, and the ratio of ethanol solution to sodium acetate solution (50 mM, pH=4.0) was controlled to be 1:3. A crude solution of lipid nanoparticles was prepared in a micro flow channel chip, then dialyzed for 6 hours with 1×PBS at a controlled temperature of 4° C. by using a dialysis cassette (Fisher, MWCO 20,000), and filtered with a 0.22 μm microporous filter membrane before use. The mass ratio of the amino lipid compound to luciferase mRNA (Fluc mRNA) was about 10:1. The administration route included subcutaneous and intramuscular injections.
Preparation process II: the molar ratio of amino lipid compound to DSPC, cholesterol, PEG2000-DMG was 50:10:38.5:1.5, and the preparation process was identical to the preparation process I. The administration route was tail vein administration.
Animal preparation: 6-week-old male BALB/c mice with body weights of about 20 g were selected, and fed in an SPF-grade feeding room. Animal experiments were strictly carried out according to the guidelines of the national health institution and the requirements of animal ethics. In vivo delivery: 9 mice were randomly selected per group and injected with lipid nanoparticles at a dose of 0.5 mg/kg by three administration routes: subcutaneous, intramuscular, and tail vein, respectively (three animals per administration route). After 6 hours, […] of 10 mg/mL potassium […] was injected into each mouse via the tail vein, and after 10 minutes, the mice were placed under an in vivo imaging system (IVIS-200, Xenogen), and the total fluorescence intensity of each mouse was observed and recorded by photographing. The expression intensities of Fluc mRNA delivered by the three administration routes of representative amino lipid compounds were shown in Tables 1-3. DLin-MC3 was used as a control.

Take `CCCCC/C=C\C/C=C\CCCCCCCCC(CCCCCCCC/C=C\C/C=C\CCCCC)OC(=O)CCCN(C)C` [Compound 35, (6Z,9Z,28Z,31Z)-heptatriacont-6,9,28,31-tetraene-19-yl 4-(N,N-dimethylamino)butanoate, reference compound]: the “Average fluorescence intensity (intramuscular)” value stood at 3.9E+03, the “Average fluorescence intensity (subcutaneous)” value was determined as 4.1E+04 and the “Average fluorescence intensity (tail vein)” value came out at 6.2E+06.

`CCCCCCCCCOC(=O)CCCCCCCN(CCCCO)CCCCCCCC(=O)OC(CCCCCCCC)CCCCCCCC` [Compound 36, reference compound]: the “Average fluorescence intensity (subcutaneous)” value was 1.1E+05 and the “Average fluorescence intensity (tail vein)” value is on record as 4.2E+05.

Regarding `CCCCCCCCCOC(=O)CCCCCCCN(CCCCCCCC(=O)OC(CCCCCCCC)CCCCCCCC)CCCN(C)C` [Compound 37, reference compound], the “Average fluorescence intensity (intramuscular)” value amounted to 2.5E+06 and the “Average fluorescence intensity (subcutaneous)” value came to 2.0E+05.
